Test results: ChEMBL document CHEMBL3804825, “Synthesis, structure-activity relationships, and biological evaluation of a series of benzamides as potential multireceptor antipsychotics” (Bioorg Med Chem Lett, 2016)
pEC50, pIC50: −log10 of the molar value. The source made the active and inactive calls. The rule behind the calls is not given here.

Tests used:
[1] = target: T1, 5-hydroxytryptamine receptor 1A (Homo sapiens, UniProt P08908); experiment: Agonistic activity at human 5-HT1A receptor measured after 60 mins by Ultra Lance cAMP assay; assay type: functional
T1 sequence (P08908 whole entry): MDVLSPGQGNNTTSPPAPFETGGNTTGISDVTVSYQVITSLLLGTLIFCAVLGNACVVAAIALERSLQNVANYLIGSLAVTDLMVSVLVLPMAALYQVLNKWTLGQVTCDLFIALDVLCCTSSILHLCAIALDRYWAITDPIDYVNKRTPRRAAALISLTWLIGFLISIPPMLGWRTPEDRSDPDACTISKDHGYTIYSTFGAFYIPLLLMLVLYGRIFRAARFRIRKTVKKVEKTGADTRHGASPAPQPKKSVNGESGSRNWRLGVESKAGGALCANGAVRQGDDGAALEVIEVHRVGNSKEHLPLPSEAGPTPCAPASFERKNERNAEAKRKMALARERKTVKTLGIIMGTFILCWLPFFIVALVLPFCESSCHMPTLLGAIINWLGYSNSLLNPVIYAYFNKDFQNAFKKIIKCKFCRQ

[2] = target: 5-hydroxytryptamine receptor 2A (Homo sapiens, UniProt P28223); experiment: Antagonistic activity at human 5-HT2A receptor assessed as calcium flux after 10 mins by FLIPR assay; assay type: functional
Chain of 5-hydroxytryptamine receptor 2A (P28223 whole entry): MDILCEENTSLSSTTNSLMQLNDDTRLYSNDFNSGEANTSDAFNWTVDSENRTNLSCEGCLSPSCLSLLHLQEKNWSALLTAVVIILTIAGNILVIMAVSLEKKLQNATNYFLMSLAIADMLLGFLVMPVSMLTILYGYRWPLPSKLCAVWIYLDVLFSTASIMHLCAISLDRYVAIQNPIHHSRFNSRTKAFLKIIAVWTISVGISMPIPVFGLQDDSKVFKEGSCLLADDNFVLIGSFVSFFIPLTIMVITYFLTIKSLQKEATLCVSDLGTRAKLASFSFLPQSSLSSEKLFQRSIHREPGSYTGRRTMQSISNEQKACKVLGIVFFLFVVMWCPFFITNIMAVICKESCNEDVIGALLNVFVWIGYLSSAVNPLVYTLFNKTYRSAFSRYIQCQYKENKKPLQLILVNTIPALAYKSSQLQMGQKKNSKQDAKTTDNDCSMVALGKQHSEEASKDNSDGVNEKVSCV

[3] = target: D(2) dopamine receptor (Homo sapiens, UniProt P14416); experiment: Antagonistic activity at human dopamine D2 receptor measured after 60 mins by Ultra Lance cAMP assay; assay type: functional
Chain of D(2) dopamine receptor (P14416 whole entry): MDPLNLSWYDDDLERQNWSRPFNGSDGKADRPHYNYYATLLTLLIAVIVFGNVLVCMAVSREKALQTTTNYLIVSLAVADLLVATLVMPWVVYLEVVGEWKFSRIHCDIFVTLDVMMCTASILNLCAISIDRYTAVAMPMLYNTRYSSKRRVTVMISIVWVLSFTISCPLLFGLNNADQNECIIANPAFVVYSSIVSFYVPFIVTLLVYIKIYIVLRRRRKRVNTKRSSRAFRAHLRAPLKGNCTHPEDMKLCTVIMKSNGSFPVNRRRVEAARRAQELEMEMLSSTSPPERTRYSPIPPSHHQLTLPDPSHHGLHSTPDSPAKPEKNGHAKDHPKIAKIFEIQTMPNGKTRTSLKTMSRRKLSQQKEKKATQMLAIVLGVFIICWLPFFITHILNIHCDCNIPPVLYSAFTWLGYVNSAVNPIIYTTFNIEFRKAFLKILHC

[4] = target: T2, Alpha-1A adrenergic receptor (Homo sapiens, UniProt P35348); experiment: Antagonistic activity at alpha-1A adrenergic receptor (unknown origin) after 10 mins by FLIPR assay
T2 sequence (P35348 whole entry): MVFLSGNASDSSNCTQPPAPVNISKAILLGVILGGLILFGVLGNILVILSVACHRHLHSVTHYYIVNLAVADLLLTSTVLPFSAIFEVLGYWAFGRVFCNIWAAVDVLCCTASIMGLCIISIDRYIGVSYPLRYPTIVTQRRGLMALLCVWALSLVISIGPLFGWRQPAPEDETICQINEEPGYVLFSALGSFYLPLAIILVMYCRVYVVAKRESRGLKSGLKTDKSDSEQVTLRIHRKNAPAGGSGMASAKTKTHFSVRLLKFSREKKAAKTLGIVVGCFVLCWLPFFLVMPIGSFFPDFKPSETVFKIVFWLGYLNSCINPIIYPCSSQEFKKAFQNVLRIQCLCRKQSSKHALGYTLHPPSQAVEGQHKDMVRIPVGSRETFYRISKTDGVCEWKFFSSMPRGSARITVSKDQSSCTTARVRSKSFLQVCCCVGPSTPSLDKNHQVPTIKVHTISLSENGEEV

[5] = system: Mus musculus; experiment: Toxicity in ig dosed mouse assessed as induction of catalepsy by horizontal bar method; assay type: organism-based; conditions: in vivo, po
[6] = system: Mus musculus; experiment: Antipsychotic activity in ig dosed mouse assessed as inhibition of PCP-induced hyperactivity; assay type: functional; conditions: for ED50: po
[7] = Metabolic stability in human liver microsomes assessed as compound loss at 2 uM measured after 30 mins in presence of NADPH by LC-MS/MS analysis; assay type: ADME; conditions: read-out: Drug degradation
[8] = system: Mus musculus; experiment: Toxicity in mouse assessed as induction of sedation at 10 mg/kg, ip administered 45 mins prior testing measured after 60 mins; assay type: organism-based; conditions: in vivo, 1 h
[9] = target: Histamine H1 receptor (Homo sapiens, UniProt P35367); experiment: Antagonistic activity at histamine1 receptor (unknown origin) after 10 mins by FLIPR assay
Chain of Histamine H1 receptor (P35367 whole entry): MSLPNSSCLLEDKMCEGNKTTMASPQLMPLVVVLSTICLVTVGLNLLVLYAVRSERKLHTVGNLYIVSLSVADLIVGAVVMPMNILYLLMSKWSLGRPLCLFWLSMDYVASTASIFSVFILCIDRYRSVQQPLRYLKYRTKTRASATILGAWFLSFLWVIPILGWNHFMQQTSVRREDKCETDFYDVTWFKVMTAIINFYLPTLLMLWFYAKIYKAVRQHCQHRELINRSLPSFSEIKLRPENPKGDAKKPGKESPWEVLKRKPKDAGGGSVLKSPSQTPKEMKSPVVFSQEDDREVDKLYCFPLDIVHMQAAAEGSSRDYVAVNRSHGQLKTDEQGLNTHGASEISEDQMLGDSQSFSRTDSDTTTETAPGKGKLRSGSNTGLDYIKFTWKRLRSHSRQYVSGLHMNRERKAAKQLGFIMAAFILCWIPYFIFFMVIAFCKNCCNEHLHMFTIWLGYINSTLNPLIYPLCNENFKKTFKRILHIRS

[10] = target: T3, 5-hydroxytryptamine receptor 2C (Homo sapiens, UniProt P28335); experiment: Antagonistic activity at 5-HT2c receptor (unknown origin) after 10 mins by FLIPR assay
T3 sequence (P28335 whole entry): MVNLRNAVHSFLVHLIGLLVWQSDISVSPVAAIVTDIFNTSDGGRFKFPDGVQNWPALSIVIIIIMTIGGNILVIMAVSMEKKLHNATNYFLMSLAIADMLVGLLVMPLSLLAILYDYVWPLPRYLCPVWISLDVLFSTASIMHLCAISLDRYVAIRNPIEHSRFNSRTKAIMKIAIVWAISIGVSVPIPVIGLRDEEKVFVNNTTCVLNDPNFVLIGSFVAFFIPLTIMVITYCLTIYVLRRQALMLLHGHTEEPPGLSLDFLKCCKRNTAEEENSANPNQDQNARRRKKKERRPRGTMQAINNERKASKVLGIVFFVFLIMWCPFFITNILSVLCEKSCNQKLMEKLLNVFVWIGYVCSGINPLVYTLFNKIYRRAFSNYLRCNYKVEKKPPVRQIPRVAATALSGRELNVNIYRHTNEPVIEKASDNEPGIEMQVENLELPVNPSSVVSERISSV

[11] = target: Voltage-gated inwardly rectifying potassium channel KCNH2 (Homo sapiens, UniProt Q12809)
Chain of Voltage-gated inwardly rectifying potassium channel KCNH2 (Q12809 whole entry): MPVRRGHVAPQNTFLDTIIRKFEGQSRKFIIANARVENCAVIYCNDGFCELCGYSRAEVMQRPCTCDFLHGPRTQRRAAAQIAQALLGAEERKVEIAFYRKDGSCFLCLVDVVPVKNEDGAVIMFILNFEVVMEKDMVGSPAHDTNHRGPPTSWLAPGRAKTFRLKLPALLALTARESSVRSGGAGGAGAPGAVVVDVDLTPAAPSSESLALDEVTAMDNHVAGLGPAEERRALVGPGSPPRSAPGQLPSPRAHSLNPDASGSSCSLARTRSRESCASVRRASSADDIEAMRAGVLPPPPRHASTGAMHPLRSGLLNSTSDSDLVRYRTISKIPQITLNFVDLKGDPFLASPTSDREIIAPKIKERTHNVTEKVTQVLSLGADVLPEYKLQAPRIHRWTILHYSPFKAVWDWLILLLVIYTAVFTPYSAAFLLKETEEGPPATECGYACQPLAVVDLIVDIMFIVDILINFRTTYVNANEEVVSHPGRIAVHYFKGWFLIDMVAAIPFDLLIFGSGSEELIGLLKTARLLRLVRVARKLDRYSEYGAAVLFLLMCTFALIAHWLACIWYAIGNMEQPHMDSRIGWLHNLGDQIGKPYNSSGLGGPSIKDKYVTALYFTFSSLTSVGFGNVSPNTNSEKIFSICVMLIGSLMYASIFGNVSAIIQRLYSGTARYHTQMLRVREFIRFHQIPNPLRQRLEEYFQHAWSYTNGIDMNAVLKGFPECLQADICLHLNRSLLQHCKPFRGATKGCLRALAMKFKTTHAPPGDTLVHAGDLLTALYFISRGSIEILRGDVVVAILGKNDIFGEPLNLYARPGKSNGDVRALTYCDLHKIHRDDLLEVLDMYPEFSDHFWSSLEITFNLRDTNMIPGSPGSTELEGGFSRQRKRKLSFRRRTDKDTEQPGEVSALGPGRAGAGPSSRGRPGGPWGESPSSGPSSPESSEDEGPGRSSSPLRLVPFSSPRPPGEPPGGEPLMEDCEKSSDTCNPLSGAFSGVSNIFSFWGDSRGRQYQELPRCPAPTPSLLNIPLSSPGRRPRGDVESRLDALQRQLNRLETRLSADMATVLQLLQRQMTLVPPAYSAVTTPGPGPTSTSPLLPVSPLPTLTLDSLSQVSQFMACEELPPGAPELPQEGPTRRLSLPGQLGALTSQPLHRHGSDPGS
Description: Inhibition of human ERG after 10 mins

[12] = system: Mus musculus; experiment: Toxicity in mouse assessed as induction of sedation at 1 mg/kg, ip administered 45 mins prior testing measured after 60 mins; assay type: organism-based; conditions: in vivo, 1 h
[13] = system: Mus musculus; experiment: Antipsychotic activity in mouse assessed as inhibition of PCP-induced hyperactivity at 10 mg/kg, ip administered 45 mins prior testing measured after 60 mins; assay type: functional, organism-based
[14] = in vivo; conditions: mouse, po
Description: Therapeutic index, ratio of ED50 for toxicity in orally dosed mouse by catalepsy test to ED50 for antipsychotic activity in mouse

[15] = system: Mus musculus; experiment: Antipsychotic activity in mouse assessed as inhibition of PCP-induced hyperactivity at 1 mg/kg, ip administered 45 mins prior testing measured after 60 mins; assay type: functional, organism-based

For `CNC(=O)c1cc(OCCCCN2CCN(c3cccc(Cl)c3Cl)CC2)cc(C(C)=O)c1`, the pEC50 [1] was 6.86, the pIC50 [2] was 6.31 and the pIC50 [3] was 7.42.
`CCCCCNC(=O)c1cccc(OCCCCN2CCN(c3cccc(Cl)c3Cl)CC2)c1` gave a pEC50 [1] of 6.33, a pIC50 [2] of 5.96 and a pIC50 [3] of 7.77.
In the case of `CNC(=O)c1ccc(OCCCCN2CCN(c3cccc(Cl)c3Cl)CC2)cc1`, the pEC50 [1] was 6.91, the pIC50 [2] was 6.09 and the pIC50 [3] was 7.15.
For `CNC(=O)c1cc(F)cc(OCCCCN2CCN(c3cccc(Cl)c3Cl)CC2)c1`, the pEC50 [1] was 6.44, the pIC50 [2] was 5.88 and the pIC50 [3] was 5.80.
For `CCNC(=O)c1cccc(OCCCCN2CCN(c3cccc(Cl)c3Cl)CC2)c1`, the pEC50 [1] was 7.00, the pIC50 [2] was 6.17 and the pIC50 [3] was 6.94.
With `CNC(=O)c1ccccc1OCCCCN1CCN(c2cccc(Cl)c2Cl)CC1` the pEC50 [1] was 6.51, the pIC50 [2] was 5.66 and the pIC50 [3] was 6.78.
For `CNC(=O)c1cc(C)cc(OCCCCN2CCN(c3cccc(Cl)c3Cl)CC2)c1`, the pEC50 [1] was 7.01, the pIC50 [2] was 5.85 and the pIC50 [3] was 7.05.
`CNC(=O)c1cccc(OCCCCN2CCN(c3cccc(Cl)c3Cl)CC2)c1OC` gave a pEC50 [1] of 6.92, a pIC50 [2] of 6.14 and a pIC50 [3] of 6.69.
Work on `CNC(=O)c1cccc(OCCCCN2CCN(c3cccc(Cl)c3Cl)CC2)c1C` yielded a pEC50 [1] of 6.91, a pIC50 [2] of 6.07 and a pIC50 [3] of 5.44.
In the case of `CC(=O)Nc1cccc(OCCCCN2CCN(c3cccc(Cl)c3Cl)CC2)c1`, the pEC50 [1] was < 7.00, the pIC50 [2] was 5.98 and the pIC50 [3] was 7.01.
For `CNC(=O)c1cc(OCCCCN2CCN(c3cccc4c3OC(F)(F)O4)CC2)ccc1F`, the pEC50 [1] was 8.09, the pIC50 [2] was 5.72 and the pIC50 [3] was 7.52.
Work on `CNC(=O)c1cc(OCCCCN2CCN(c3cccc(Cl)c3Cl)CC2)ccc1F` yielded a pEC50 [1] of 8.14, a pIC50 [2] of 6.44 and a pIC50 [3] of 7.40.
In the case of `CNC(=O)c1ccc(Cl)c(OCCCCN2CCN(c3cccc(Cl)c3Cl)CC2)c1`, the pEC50 [1] was < 5.00, the pIC50 [2] was 5.86 and the pIC50 [3] was 7.23.
Compound `CNC(=O)c1cc(OCCCCN2CCN(c3cccc(Cl)c3Cl)CC2)ccc1Cl` has a pEC50 [1] of 7.46, a pIC50 [2] of 6.47 and a pIC50 [3] of 7.46.
In the case of `CNC(=O)c1cccc(OCCCCN2CCN(c3nsc4ccccc34)CC2)c1`, the pEC50 [1] was 8.37, the pIC50 [2] was 6.74 and the pIC50 [3] was 8.00.
Compound `CNC(=O)c1cccc(OCCCCN2CCN(c3cccc(Cl)c3Cl)CC2)c1F` has a pEC50 [1] of 6.52, a pIC50 [2] of 7.52 and a pIC50 [3] of 6.77.
With `CNC(=O)c1cccc(OCCCCN2CCN(c3cccc4c3OC(F)(F)O4)CC2)c1` the pEC50 [1] was 7.92, the pIC50 [2] was < 5.00 and the pIC50 [3] was 8.39.
For `CNC(=O)c1cccc(OCCCCN2CCC(c3noc4cc(F)ccc34)CC2)c1`, the pIC50 [4] was 7.46, the ED50 [5] was 6.76 mg/kg and the inhibition [6] was “Dose-dependent effect”. It also gave an ED50 [6] of 0.06 mg/kg, a metabolised at 0.5 h, 2 µM [7] of 3% and a pEC50 [1] of 7.89. The Activity [8] was “Toxic”, the pIC50 [9] was 5.59 and the pIC50 [10] was 6.72. For the same compound, the pIC50 [11] was 5.99, the Activity [12] was “Non-toxic” and the pIC50 [2] was 7.34. The inhibition [13] was “Active”, the pIC50 [3] was 8.07 and the selectivity ratio [14] was 113. For the same compound, the inhibition [15] was “Active”.
For `CNC(=O)c1ccc(OC)c(OCCCCN2CCN(c3cccc(Cl)c3Cl)CC2)c1`, the pEC50 [1] was 7.59, the pIC50 [2] was 6.08 and the pIC50 [3] was 7.92.
For `CNC(=O)c1cc(OCCCCN2CCN(c3cccc4sccc34)CC2)ccc1F`, the metabolised at 0.5 h, 2 µM [7] was 51%, the pEC50 [1] was 8.22 and the pIC50 [2] was 7.10. For the same compound, the inhibition [13] was “inactive” and the pIC50 [3] was 7.37.
`CNC(=O)c1cc(OCCCCN2CCN(c3cccc(Cl)c3Cl)CC2)ccc1C` showed a pEC50 [1] of 7.13, a pIC50 [2] of 6.34 and a pIC50 [3] of 8.01.
For `CNC(=O)c1cccc(OCCCCN2CCN(c3cccc(Cl)c3Cl)CC2)c1`, the pEC50 [1] was 7.62, the pIC50 [2] was 5.96 and the pIC50 [3] was 7.49.
For `NC(=O)c1cccc(OCCCCN2CCN(c3cccc(Cl)c3Cl)CC2)c1`, the pEC50 [1] was 7.59 and the pIC50 [2] was 5.96.
In the case of `CNC(=O)c1cc(OCCCCN2CCC(c3noc4cc(F)ccc34)CC2)ccc1F`, the pIC50 [4] was 6.92, the ED50 [5] was 7.04 mg/kg and the inhibition [6] was “Dose-dependent effect”. It also gave an ED50 [6] of 0.11 mg/kg, a metabolised at 0.5 h, 2 µM [7] of 14% and a pEC50 [1] of 7.89. The Activity [8] was “Toxic”, the pIC50 [9] was 6.01 and the pIC50 [10] was 6.57. For the same compound, the Activity [12] was “Non-toxic”, the pIC50 [2] was 7.82 and the inhibition [13] was “Active”. For the same compound, the pIC50 [3] was 7.64 and the inhibition [15] was “Active”.
Compound `Cc1nc2n(c(=O)c1CCN1CCC(c3noc4cc(F)ccc34)CC1)CCCC2` [RISPERIDONE] has an ED50 [5] of 0.3 mg/kg.
`CNC(=O)c1cccc(OCCCCN2CCN(c3cccc4sccc34)CC2)c1` gave a pEC50 [1] of 8.29, a pIC50 [2] of 6.67 and a pIC50 [3] of 7.04.
`CNC(=O)c1cc(OCCCCN2CCN(c3nsc4ccccc34)CC2)ccc1F` gave a metabolised at 0.5 h, 2 µM [7] of 47%, a pEC50 [1] of 8.57 and a pIC50 [2] of 7.46. The inhibition [13] was “inactive” and the pIC50 [3] was 7.92.
